Results: US4468511A, “C-20- And C-23-Modified macrolide derivatives” (Eli Lilly and Company, priority 1983, dated 1984)
Values after ≈ are worked out from the molar mass of the structure shown. Read-outs that look alike come from different tables or passages of the source.

How the values were obtained:
Type in all cases: cell-based
[1] = tested on: Haemophilus influenzae 76; assay: MIC, standard agar-dilution assay
Experimental: (§1) The MIC's in Table II were determined by standard agar-dilution assays. The MIC's in Table III were obtained using a conventional broth-dilution microtiter test.

[2] = tested on: Haemophilus influenzae C.L.; assay: MIC, standard agar-dilution assay
Experimental: as §1

[3] = tested on: Staphylococcus aureus X400; assay: MIC, standard agar-dilution assay; settings: Staphylococcus aureus, X400
Experimental: as §1

[4] = tested on: Staphylococcus epidermidis EPI2; assay: MIC, standard agar-dilution assay
Experimental: as §1

Mycoplasma gallisepticum = assay: MIC, conventional broth-dilution microtiter test; settings: Mycoplasmoides gallisepticum
Experimental: (§2) Certain of the derivatives are active against some gram-negative bacteria, such as Pasteurella species. The MIC's in Table II were determined by standard agar-dilution assays. The MIC's in Table III were obtained using a conventional broth-dilution microtiter test.

[5] = tested on: Mycoplasma gallisepticum 34159; assay: MIC, conventional broth-dilution microtiter test; settings: Mycoplasmoides gallisepticum; broth-dilution microtiter; Mycoplasma gallisepticum 34159, Resistant strain; read-out: MIC
Experimental: as §2

[6] = tested on: Pasteurella multocida 68C; assay: MIC, conventional broth-dilution microtiter test; settings: broth-dilution microtiter; Pasteurella multocida 68C; read-out: MIC
Experimental: as §2

Staphylococcus aureus = assay: MIC, conventional broth-dilution microtiter test; settings: broth-dilution microtiter, read-out: MIC
Experimental: as §2

[7] = tested on: Pasteurella hemolytica 41D; assay: MIC, conventional broth-dilution microtiter test; settings: broth-dilution microtiter; Pasteurella hemolytica 41D; read-out: MIC
Experimental: as §2

Streptococcus sp. 80 = assay: MIC, conventional broth-dilution microtiter test; settings: broth-dilution microtiter; Streptococcus sp. 80; read-out: MIC
Experimental: as §2

[8] = tested on: Pasteurella multocida 40G; assay: MIC, conventional broth-dilution microtiter test; settings: broth-dilution microtiter; Pasteurella multocida 40G; read-out: MIC
Experimental: as §2

[9] = tested on: Pasteurella hemolytica 22C; assay: MIC, conventional broth-dilution microtiter test; settings: broth-dilution microtiter; Pasteurella hemolytica 22C; read-out: MIC
Experimental: as §2

[10] = tested on: Mycoplasma gallisepticum 41313; assay: MIC, conventional broth-dilution microtiter test; settings: Mycoplasmoides gallisepticum; broth-dilution microtiter; Mycoplasma gallisepticum 41313, Resistant strain; read-out: MIC
Experimental: as §2

Mycoplasma hyorhinis = assay: MIC, conventional broth-dilution microtiter test; settings: broth-dilution microtiter; Mycoplasma hyorhinis; read-out: MIC
Experimental: as §2

[11] = tested on: Pasteurella multocida 17E; assay: MIC, conventional broth-dilution microtiter test; settings: broth-dilution microtiter; Pasteurella multocida 17E, Bovine isolate; read-out: MIC
Experimental: as §2

[12] = tested on: Pasteurella hemolytica 23C; assay: MIC, conventional broth-dilution microtiter test; settings: broth-dilution microtiter; Pasteurella hemolytica 23C; read-out: MIC
Experimental: as §2

[13] = tested on: Pasteurella multocida 60A; assay: MIC, conventional broth-dilution microtiter test; settings: broth-dilution microtiter; Pasteurella multocida 60A, Avian isolate; read-out: MIC
Experimental: as §2

[14] = tested on: Pasteurella multocida 22A; assay: MIC, conventional broth-dilution microtiter test; settings: broth-dilution microtiter; Pasteurella multocida 22A; read-out: MIC
Experimental: as §2

[15] = tested on: Streptococcus Group D X66; assay: MIC, standard agar-dilution assay
Experimental: as §2

[16] = tested on: Streptococcus pyogenes 9960; assay: MIC, standard agar-dilution assay
Experimental: as §2

Escherichia coli TEM = assay: MIC, standard agar-dilution assay
Experimental: as §2

[17] = tested on: Staphylococcus aureus X1.1; assay: MIC, standard agar-dilution assay
Experimental: as §2

[18] = tested on: Klebsiella pneumoniae KAE; assay: MIC, standard agar-dilution assay; settings: agar-dilution; Klebsiella pneumoniae KAE; read-out: MIC
Experimental: as §2

[19] = tested on: Klebsiella pneumoniae X26; assay: MIC, standard agar-dilution assay
Experimental: as §2

[20] = tested on: Staphylococcus aureus V41; assay: MIC, standard agar-dilution assay; settings: Staphylococcus aureus, V41
Experimental: as §2

Escherichia coli EC14 = assay: MIC, standard agar-dilution assay; settings: agar-dilution; Escherichia coli EC14; read-out: MIC
Experimental: as §2

[21] = tested on: Streptococcus pneumoniae Park I; assay: MIC, standard agar-dilution assay
Experimental: as §2

[22] = tested on: Staphylococcus epidermidis EPI1; assay: microbe, parasite or virus in culture
Experimental: as §1

[23] = tested on: Staphylococcus aureus S13E; assay: microbe, parasite or virus in culture
Experimental: as §1

[24] = tested on: Streptococcus pyogenes C203; assay: MIC, standard agar-dilution assay; settings: agar-dilution; Streptococcus pyogenes C203; read-out: MIC
Experimental: as §2

[25] = agar-dilution, Staphylococcus epidermidis EPI2, read-out: MIC
[26] = agar-dilution, Klebsiella pneumoniae X26, read-out: MIC
[27] = agar-dilution, Streptococcus pneumoniae Park I, read-out: MIC
[28] = Staphylococcus epidermidis, EPI1
[29] = agar-dilution, Streptococcus Group D X66, read-out: MIC
[30] = agar-dilution, Streptococcus 9960, read-out: MIC
[31] = agar-dilution, Escherichia coli TEM, read-out: MIC

SMILES	MIC ([1]; Haemophilus influenzae, 76) [µg/mL]	MIC ([2]; Haemophilus influenzae) [µg/mL]	MIC [3] [µg/mL]	MIC [5] [µg/mL]	MIC [6] [µg/mL]	MIC (Staphylococcus aureus) [µg/mL]	MIC [7] [µg/mL]	MIC (Streptococcus sp. 80) [µg/mL]	MIC [8] [µg/mL]	MIC [9] [µg/mL]	MIC [10] [µg/mL]	MIC (Mycoplasma hyorhinis) [µg/mL]	MIC [11] [µg/mL]	MIC [12] [µg/mL]	MIC [13] [µg/mL]	MIC [14] [µg/mL]	MIC [18] [µg/mL]	MIC [20] [µg/mL]	MIC (Escherichia coli EC14) [µg/mL]	MIC [23] [µg/mL]	further results
CCC1OC(=O)CC(O)C(C)C(OC2OC(C)C(O)C(N(C)C)C2O)C(CCN2C(=O)c3ccccc3C2=O)CC(C)C(=O)C=CC(C)=CC1CO (stereo not shown) [Compound 6, 20-N-Phthalimido-20-deoxy-20-dihydro-OMT]	64 (≈ 87.8 µM)	64 (≈ 87.8 µM)	16 (≈ 22 µM)	50 (≈ 68.6 µM)	25 (≈ 34.3 µM)	25 (≈ 34.3 µM)	50 (≈ 68.6 µM)	3.12 (≈ 4.28 µM)	50 (≈ 68.6 µM)	50 (≈ 68.6 µM)	50 (≈ 68.6 µM)	50 (≈ 68.6 µM)	50 (≈ 68.6 µM)	50 (≈ 68.6 µM)	50 (≈ 68.6 µM)	50 (≈ 68.6 µM)	> 128	8 (≈ 11 µM)	> 128	8 (≈ 11 µM)	MIC [4, 25]: 2 µg/mL (≈ 2.74 µM); MIC (Mycoplasma gallisepticum; broth-dilution microtiter, Mycoplasma gallisepticum, read-out: MIC): 3.12 µg/mL (≈ 4.28 µM); MIC [15]: 16 µg/mL (≈ 22 µM); MIC [16]; 9960: 16 µg/mL (≈ 22 µM); MIC (Escherichia coli TEM; Escherichia coli): 64 µg/mL (≈ 87.8 µM); MIC ([17]; agar-dilution, Staphylococcus aureus X1.1, read-out: MIC): 4 µg/mL (≈ 5.49 µM); MIC [19, 26]: 16 µg/mL (≈ 22 µM); MIC [21, 27]: 2 µg/mL (≈ 2.74 µM); MIC [22, 28]: 4 µg/mL (≈ 5.49 µM)
CCC1OC(=O)CC(O)C(C)C(OC2OC(C)C(OC3CC(C)(O)C(O)C(C)O3)C(N(C)C)C2O)C(CCN2C(=O)c3ccccc3C2=O)CC(C)C(=O)C=CC(C)=CC1CO (stereo not shown) [Compound 17, 20-N-Phthalimido-20-deoxy-20-dihydro-DMT]			64 (≈ 73.3 µM)	50 (≈ 57.3 µM)	> 50	> 50	> 50	50 (≈ 57.3 µM)	> 50	> 50	50 (≈ 57.3 µM)	50 (≈ 57.3 µM)	> 50	> 50	> 50	> 50	> 128	64 (≈ 73.3 µM)	> 128	64 (≈ 73.3 µM)	MIC ([1]; agar-dilution, Haemophilus influenzae 76, Ampicillin-resistant strain, read-out: MIC): > 128 µg/mL; MIC ([2]; agar-dilution, Haemophilus influenzae C.L., Ampicillin-sensitive strain, read-out: MIC): > 128 µg/mL; MIC [4, 25]: 32 µg/mL (≈ 36.7 µM); MIC (Mycoplasma gallisepticum): 12.5 µg/mL (≈ 14.3 µM); MIC [15, 29]: > 128 µg/mL; MIC [16, 30]: > 128 µg/mL; MIC [24]: 128 µg/mL (≈ 147 µM); MIC (Escherichia coli TEM; [31]): > 128 µg/mL; MIC ([17]; Staphylococcus aureus, X1.1): 64 µg/mL (≈ 73.3 µM); MIC [19, 26]: > 128 µg/mL; MIC [21, 27]: 16 µg/mL (≈ 18.3 µM); MIC ([22]; agar-dilution, Staphylococcus epidermidis EPI1, read-out: MIC): 32 µg/mL (≈ 36.7 µM)
CCC1OC(=O)CC(O)C(C)C(OC2OC(C)C(O)C(N(C)C)C2O)C(CCN2C(=O)c3ccccc3C2=O)CC(C)C(=O)C=CC(C)=CC1C (stereo not shown) [Compound 22, 20-N-Phthalimido-20-deoxy-20-dihydro-DOMT]	128 (≈ 180 µM)	128 (≈ 180 µM)	32 (≈ 44.9 µM)	50 (≈ 70.1 µM)	25 (≈ 35.1 µM)	25 (≈ 35.1 µM)	50 (≈ 70.1 µM)	6.25 (≈ 8.77 µM)	50 (≈ 70.1 µM)	50 (≈ 70.1 µM)	50 (≈ 70.1 µM)	25 (≈ 35.1 µM)	50 (≈ 70.1 µM)	50 (≈ 70.1 µM)	50 (≈ 70.1 µM)	50 (≈ 70.1 µM)	> 128	8 (≈ 11.2 µM)	> 128	8 (≈ 11.2 µM)	MIC ([4]; Staphylococcus epidermidis, EPI2): 4 µg/mL (≈ 5.61 µM); MIC (Mycoplasma gallisepticum): 0.78 µg/mL (≈ 1.09 µM); MIC [15, 29]: 16 µg/mL (≈ 22.4 µM); MIC [16, 30]: 16 µg/mL (≈ 22.4 µM); MIC (Escherichia coli TEM; [31]): 128 µg/mL (≈ 180 µM); MIC ([17]; Staphylococcus aureus, X1.1): 8 µg/mL (≈ 11.2 µM); MIC ([19]; Klebsiella pneumoniae, X26): 32 µg/mL (≈ 44.9 µM); MIC ([21]; Streptococcus pneumoniae): 4 µg/mL (≈ 5.61 µM); MIC [22, 28]: 8 µg/mL (≈ 11.2 µM)
